Source: PubChem BioAssay AID1963979 (Molecular Pharmacology Branch, DTP, NCI, 2024)
pIC50: −log10 of the molar value.

System: 361931-004-R-J1-PDC multicell spheroid viability
Assay: Anticancer human tumor 361931-004-R-J1-PDC patient-derived colon adenocarcinoma cell line growth inhibition [PI3K]
Conditions: for pIC50: curve of first compound; for viability, T/C: stronger effect = lower value
In short: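 Multi-cell spheroids combine tumor cells with HUVEC and human MSCs, treated with targeted agents alone or with inavolisib, alpelisib, duvelisib or copanlisib. Concentrations fall in half-log steps from at or near clinical Cmax, or from 10 microM where Cmax is unknown; viability read-out.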

[1] = second compound 0.0316 µM, first compound 0.0316 µM
[2] = second compound 0.0316 µM, first compound 0.1 µM
[3] = second compound 0.0316 µM, first compound 0.316 µM
[4] = second compound 0.0316 µM, first compound 1 µM
[5] = second compound 0.0316 µM, first compound 3.16 µM
[6] = second compound 0.0316 µM, first compound 10 µM
[7] = second compound 0.1 µM, first compound 0.0316 µM
[8] = second compound 0.1 µM, first compound 0.1 µM
[9] = second compound 0.1 µM, first compound 0.316 µM
[10] = second compound 0.1 µM, first compound 1 µM
[11] = second compound 0.1 µM, first compound 3.16 µM
[12] = second compound 0.1 µM, first compound 10 µM
[13] = second compound 0.316 µM, first compound 0.0316 µM
[14] = second compound 0.316 µM, first compound 0.1 µM
[15] = second compound 0.316 µM, first compound 0.316 µM
[16] = second compound 0.316 µM, first compound 1 µM
[17] = second compound 0.316 µM, first compound 3.16 µM
[18] = second compound 0.316 µM, first compound 10 µM
[19] = second compound 1 µM, first compound 0.0316 µM
[20] = second compound 1 µM, first compound 0.1 µM
[21] = second compound 1 µM, first compound 0.316 µM
[22] = second compound 1 µM, first compound 1 µM
[23] = second compound 1 µM, first compound 3.16 µM
[24] = second compound 1 µM, first compound 10 µM
[25] = second compound 3.16 µM, first compound 0.0316 µM
[26] = second compound 3.16 µM, first compound 0.1 µM
[27] = second compound 3.16 µM, first compound 0.316 µM
[28] = second compound 3.16 µM, first compound 1 µM
[29] = second compound 3.16 µM, first compound 3.16 µM
[30] = second compound 3.16 µM, first compound 10 µM
[31] = second compound 10 µM, first compound 0.0316 µM
[32] = second compound 10 µM, first compound 0.1 µM
[33] = second compound 10 µM, first compound 0.316 µM
[34] = second compound 10 µM, first compound 1 µM
[35] = second compound 10 µM, first compound 3.16 µM
[36] = second compound 10 µM, first compound 10 µM
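Note: spheroids exposed to agents for seven days before readout.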

## C[C@@H](NC(=O)c1ncnc(N)c1Cl)c1ncc(C(=O)Nc2cc(C(F)(F)F)c(Cl)cn2)s1 + Cc1nc(NC(=O)N2CCCC2C(N)=O)sc1-c1ccnc(C(C)(C)C(F)(F)F)c1
Second compound 0.0316 µM
  pIC50: < 5.00
Second compound 0.1 µM
  pIC50: < 5.00
Second compound 0.316 µM
  pIC50: < 5.00
Second compound 1 µM
  pIC50: < 5.00
Second compound 3.16 µM
  pIC50: 5.31
Second compound 10 µM
  pIC50: 6.39
[1]
  viability, T/C: 104%
[2]
  viability, T/C: 106%
[3]
  viability, T/C: 80.8%
[4]
  viability, T/C: 97.3%
[5]
  viability, T/C: 92.9%
[6]
  viability, T/C: 85.5%
[7]
  viability, T/C: 110%
[8]
  viability, T/C: 104%
[9]
  viability, T/C: 89.1%
[10]
  viability, T/C: 106%
[11]
  viability, T/C: 92.9%
[12]
  viability, T/C: 80.5%
[13]
  viability, T/C: 102%
[14]
  viability, T/C: 100%
[15]
  viability, T/C: 99.3%
[16]
  viability, T/C: 89%
[17]
  viability, T/C: 101%
[18]
  viability, T/C: 78%
[19]
  viability, T/C: 104%
[20]
  viability, T/C: 95.8%
[21]
  viability, T/C: 93.3%
[22]
  viability, T/C: 88.8%
[23]
  viability, T/C: 84.2%
[24]
  viability, T/C: 60.9%
[25]
  viability, T/C: 89.9%
[26]
  viability, T/C: 84.8%
[27]
  viability, T/C: 76.1%
[28]
  viability, T/C: 70.4%
[29]
  viability, T/C: 67.1%
[30]
  viability, T/C: 31%
[31]
  viability, T/C: 77.8%
[32]
  viability, T/C: 59%
[33]
  viability, T/C: 55.6%
[34]
  viability, T/C: 41.7%
[35]
  viability, T/C: 22%
[36]
  viability, T/C: 3.55%

## Cn1ncc(Cl)c1-c1cc(C(=O)NC(CN)Cc2cccc(F)c2)sc1Cl (stereo unspecified) + Cc1nc(NC(=O)N2CCCC2C(N)=O)sc1-c1ccnc(C(C)(C)C(F)(F)F)c1
Second compound 0.0316 µM
  pIC50: 5.88
Second compound 0.1 µM
  pIC50: 6.04
Second compound 0.316 µM
  pIC50: 6.10
Second compound 1 µM
  pIC50: 6.15
Second compound 3.16 µM
  pIC50: 6.20
Second compound 10 µM
  pIC50: 6.39
[1]
  viability, T/C: 98.5%
[2]
  viability, T/C: 95%
[3]
  viability, T/C: 83.4%
[4]
  viability, T/C: 53.4%
[5]
  viability, T/C: 34.3%
[6]
  viability, T/C: 19.7%
[7]
  viability, T/C: 96.3%
[8]
  viability, T/C: 95.3%
[9]
  viability, T/C: 71.8%
[10]
  viability, T/C: 48.8%
[11]
  viability, T/C: 29.8%
[12]
  viability, T/C: 20.5%
[13]
  viability, T/C: 100%
[14]
  viability, T/C: 87.5%
[15]
  viability, T/C: 77.2%
[16]
  viability, T/C: 40%
[17]
  viability, T/C: 28%
[18]
  viability, T/C: 14.5%
[19]
  viability, T/C: 89.8%
[20]
  viability, T/C: 93.7%
[21]
  viability, T/C: 72.3%
[22]
  viability, T/C: 39.1%
[23]
  viability, T/C: 28.8%
[24]
  viability, T/C: 16%
[25]
  viability, T/C: 77.4%
[26]
  viability, T/C: 87.1%
[27]
  viability, T/C: 67.8%
[28]
  viability, T/C: 35.1%
[29]
  viability, T/C: 29.2%
[30]
  viability, T/C: 11.6%
[31]
  viability, T/C: 77.2%
[32]
  viability, T/C: 69.1%
[33]
  viability, T/C: 54.9%
[34]
  viability, T/C: 34.2%
[35]
  viability, T/C: 20.6%
[36]
  viability, T/C: 7.91%

## Cn1ncnc1[C@H]1c2n[nH]c(=O)c3cc(F)cc(c23)N[C@@H]1c1ccc(F)cc1 + Cc1nc(NC(=O)N2CCCC2C(N)=O)sc1-c1ccnc(C(C)(C)C(F)(F)F)c1
Second compound 0.0316 µM
  pIC50: < 7.00
Second compound 0.1 µM
  pIC50: < 7.00
Second compound 0.316 µM
  pIC50: < 7.00
Second compound 1 µM
  pIC50: < 7.00
Second compound 3.16 µM
  pIC50: < 7.00
Second compound 10 µM
  pIC50: 7.32
Second compound 0.0316 µM, first compound 0.000316 µM
  viability, T/C: 98%
Second compound 0.0316 µM, first compound 0.001 µM
  viability, T/C: 93.1%
Second compound 0.0316 µM, first compound 0.00316 µM
  viability, T/C: 97.3%
Second compound 0.0316 µM, first compound 0.01 µM
  viability, T/C: 93%
[1]
  viability, T/C: 79.8%
[2]
  viability, T/C: 85.3%
Second compound 0.1 µM, first compound 0.000316 µM
  viability, T/C: 109%
Second compound 0.1 µM, first compound 0.001 µM
  viability, T/C: 93.6%
Second compound 0.1 µM, first compound 0.00316 µM
  viability, T/C: 94.5%
Second compound 0.1 µM, first compound 0.01 µM
  viability, T/C: 93.2%
[7]
  viability, T/C: 86.5%
[8]
  viability, T/C: 76.8%
Second compound 0.316 µM, first compound 0.000316 µM
  viability, T/C: 98.2%
Second compound 0.316 µM, first compound 0.001 µM
  viability, T/C: 86.1%
Second compound 0.316 µM, first compound 0.00316 µM
  viability, T/C: 81.7%
Second compound 0.316 µM, first compound 0.01 µM
  viability, T/C: 81.8%
[13]
  viability, T/C: 83.5%
[14]
  viability, T/C: 80.8%
Second compound 1 µM, first compound 0.000316 µM
  viability, T/C: 87.3%
Second compound 1 µM, first compound 0.001 µM
  viability, T/C: 73.4%
Second compound 1 µM, first compound 0.00316 µM
  viability, T/C: 84.5%
Second compound 1 µM, first compound 0.01 µM
  viability, T/C: 79.4%
[19]
  viability, T/C: 90.1%
[20]
  viability, T/C: 70.3%
Second compound 3.16 µM, first compound 0.000316 µM
  viability, T/C: 70.4%
Second compound 3.16 µM, first compound 0.001 µM
  viability, T/C: 81.8%
Second compound 3.16 µM, first compound 0.00316 µM
  viability, T/C: 77.4%
Second compound 3.16 µM, first compound 0.01 µM
  viability, T/C: 66.9%
[25]
  viability, T/C: 72.6%
[26]
  viability, T/C: 62.2%
Second compound 10 µM, first compound 0.000316 µM
  viability, T/C: 62.2%
Second compound 10 µM, first compound 0.001 µM
  viability, T/C: 54.5%
Second compound 10 µM, first compound 0.00316 µM
  viability, T/C: 54%
Second compound 10 µM, first compound 0.01 µM
  viability, T/C: 56.6%
[31]
  viability, T/C: 47.9%
[32]
  viability, T/C: 49.2%
